# Laboratory results as given in BindingDB's records for doi:10.1016/0024-3205(82)90293-4 (University of Arizona, 1982).
# Values joined by “and” are separate entries in the source; they are usually repeats but may differ in a detail not shown here. Equal values may be shown once.
# Target: Voltage-dependent L-type calcium channel subunit alpha-1C (Rattus norvegicus, UniProt P22002)
# Sequence (P22002 whole entry): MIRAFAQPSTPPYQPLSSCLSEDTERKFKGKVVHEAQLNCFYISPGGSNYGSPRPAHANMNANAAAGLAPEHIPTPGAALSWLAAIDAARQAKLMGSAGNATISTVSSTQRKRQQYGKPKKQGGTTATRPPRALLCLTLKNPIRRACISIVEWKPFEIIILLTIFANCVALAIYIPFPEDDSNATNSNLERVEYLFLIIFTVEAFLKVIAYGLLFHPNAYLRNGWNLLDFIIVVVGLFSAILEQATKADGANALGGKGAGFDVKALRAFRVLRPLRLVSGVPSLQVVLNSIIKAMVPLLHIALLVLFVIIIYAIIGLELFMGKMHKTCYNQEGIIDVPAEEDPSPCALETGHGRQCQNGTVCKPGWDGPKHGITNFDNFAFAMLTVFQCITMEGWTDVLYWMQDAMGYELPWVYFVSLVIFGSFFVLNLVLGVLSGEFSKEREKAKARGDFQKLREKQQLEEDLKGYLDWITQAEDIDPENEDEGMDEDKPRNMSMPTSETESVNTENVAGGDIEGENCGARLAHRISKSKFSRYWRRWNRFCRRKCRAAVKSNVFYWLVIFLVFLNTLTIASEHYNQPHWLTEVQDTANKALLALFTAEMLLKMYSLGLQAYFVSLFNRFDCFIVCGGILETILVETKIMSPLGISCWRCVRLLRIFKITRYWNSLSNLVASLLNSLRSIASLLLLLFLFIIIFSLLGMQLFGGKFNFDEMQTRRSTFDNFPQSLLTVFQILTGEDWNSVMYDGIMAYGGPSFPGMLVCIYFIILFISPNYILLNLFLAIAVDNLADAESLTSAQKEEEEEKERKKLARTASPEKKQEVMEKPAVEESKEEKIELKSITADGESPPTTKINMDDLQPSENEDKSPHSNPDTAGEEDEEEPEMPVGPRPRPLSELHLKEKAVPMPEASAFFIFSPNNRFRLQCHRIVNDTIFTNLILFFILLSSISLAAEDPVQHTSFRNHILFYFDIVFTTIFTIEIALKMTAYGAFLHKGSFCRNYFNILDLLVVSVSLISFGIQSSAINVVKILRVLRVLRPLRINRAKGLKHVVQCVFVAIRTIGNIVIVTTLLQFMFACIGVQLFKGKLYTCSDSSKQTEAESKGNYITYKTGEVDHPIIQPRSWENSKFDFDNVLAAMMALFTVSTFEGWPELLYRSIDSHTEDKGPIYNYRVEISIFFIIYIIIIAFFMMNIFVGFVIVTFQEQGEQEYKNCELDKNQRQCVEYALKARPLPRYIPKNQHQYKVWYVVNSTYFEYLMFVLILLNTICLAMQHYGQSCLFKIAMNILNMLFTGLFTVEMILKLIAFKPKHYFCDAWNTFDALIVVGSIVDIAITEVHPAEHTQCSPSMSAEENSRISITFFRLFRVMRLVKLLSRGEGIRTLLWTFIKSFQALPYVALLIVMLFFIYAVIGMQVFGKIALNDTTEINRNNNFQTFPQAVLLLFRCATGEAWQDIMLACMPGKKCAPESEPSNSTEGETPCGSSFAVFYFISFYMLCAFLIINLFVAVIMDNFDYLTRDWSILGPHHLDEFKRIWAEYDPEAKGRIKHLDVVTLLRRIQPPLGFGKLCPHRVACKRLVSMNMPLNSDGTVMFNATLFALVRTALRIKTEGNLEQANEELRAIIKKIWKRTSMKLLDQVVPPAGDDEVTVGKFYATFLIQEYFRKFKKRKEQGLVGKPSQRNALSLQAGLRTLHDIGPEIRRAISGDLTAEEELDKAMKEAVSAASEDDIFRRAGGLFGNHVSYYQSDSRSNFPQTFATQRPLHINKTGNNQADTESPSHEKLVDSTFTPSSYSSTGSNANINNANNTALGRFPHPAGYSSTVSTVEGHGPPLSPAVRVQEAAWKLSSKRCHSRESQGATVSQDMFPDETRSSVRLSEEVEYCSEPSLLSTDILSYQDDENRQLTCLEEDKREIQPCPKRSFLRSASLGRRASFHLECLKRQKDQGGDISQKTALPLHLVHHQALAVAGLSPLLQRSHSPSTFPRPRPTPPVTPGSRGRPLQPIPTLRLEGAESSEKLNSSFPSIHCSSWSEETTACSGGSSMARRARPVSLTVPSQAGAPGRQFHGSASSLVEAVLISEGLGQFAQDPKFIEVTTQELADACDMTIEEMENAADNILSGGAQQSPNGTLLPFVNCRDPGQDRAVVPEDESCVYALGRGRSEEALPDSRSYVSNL
row,Ki,SMILES
1,0.33 nM and 0.5 nM,COC(=O)C1C(C)=NC(C)=C(C(=O)OCC(C)C)C1c1ccccc1[N+](=O)[O-] (stereo not drawn) [CAS_4499]
2,0.56 nM and 0.79 nM,COCCOC(=O)C1=C(C)N=C(C)C(C(=O)OC(C)C)C1c1cccc([N+](=O)[O-])c1 (stereo not drawn) [Nimotop]
3,42 nM,COc1ccc(CCN(C)CCCC(C#N)(c2cc(OC)c(OC)c(OC)c2)C(C)C)cc1OC (stereo not drawn) [GALLOPAMIL]
